Assay results from patent publication US4764361A, “Pharmaceutical compositions” (Imperial Chemical Industries PLC, priority 1987, dated 1988).
Several values for one entry are separate records, joined by “and”; a condition that tells them apart may be missing. Equal entries are not always repeated.

Legend:
Format in all cases: in vivo
cardiovasculature = test: adverse effects on the cardiovasculature after topical administration; settings: large doses administered topically to the skin
[1] = tested on: oxazolone induced contact dermatitis (erythema); test: Test C: oxazolone induced contact dermatitis in the domestic pig
Protocol: (c) in a standard test involving oxazolone induced contact dermatitis in the domestic pig (Test C).
Method: Domestic pigs were sensitised by topical application of 0.4 ml of a 10% w/v solution of oxazolone in acetone to the neck region on two occasions two weeks apart. Six paired sites were then prepared and delineated with one site from each pair to the left and one to the right of the mid-line of the back of the animal. […] The left hand site of the second three pairs was similarly treated with 0.05 ml of a second solution of the test compound in acetone at pH 5. All of the righthand sites were used as controls and were treated with 0.05 ml of acetone (acidified to pH 5 with citric acid). After 24 hours, the same treatment was repeated followed immediately by a challenge of 0.025 ml of a 1% w/v solution of oxazolone in acetone to the 1st and 4th pairs of sites, of 5% w/v solution of oxazolone in acetone to the 2nd and 5th pair of sites, and of 10% w/v solution of oxazolone in acetone to the 3rd and 6th pairs of sites. […] An inflammatory index was obtained by multiplying the area and erythema readings together. By comparison of the values for the treated and control sites, the percentage reduction in erythema of the test compound could be assessed.

[2] = tested on: inflammation on the mouse ear induced by the irritant, croton oil; test: Test A: inhibition of inflammation on the mouse ear induced by croton oil; settings: for % Inhibition / % increase in ear weight ± SEM / ED50 application rate: topical; for % Inhibition / % increase in ear weight ± SEM: 4 hours; for ED50 application rate: Test A; for activity as topical anti-inflammatory agent: application rate of 250 micrograms/ear
Protocol: (a) in a standard test involving the inhibition of inflammation on the mouse ear induced by the irritant, croton oil (Test A);
(a) Method: Groups of mice were dosed with an acetone solution of test compound or vehicle (acetone) pre-mixed with an equal volume of 4% w/v croton oil in acetone topically to the right ear (10 μl volume). Four hours later, the animals were killed and both the left (control) and right (treated) ears were removed and weighed. The percentage increase in ear weight of the treated against control was then calculated. The anti-inflammatory activity was finally expressed as percentage inhibition for the test compound dosed group in comparison with the vehicle dosed control group.

[3] = tested on: delayed hypersensitivity reaction to the contact irritant oxazolone; test: Test B: inhibition of the delayed hypersensitivity reaction to oxazolone in mice; settings: for Inhibition: 24 hours, free base in acidified acetone pH 5
Protocol: (b) in a standard test involving the inhibition of the delayed hypersensitivity reaction to the contact irritant, 4-ethoxymethylene-2-phenyloxazolone (hereinafter referred to as oxazolone) in mice (Test B); and
(a) Method: Mice were sensitised by the topical application of a 10 μl portion of a 0.5% w/v solution of oxazolone in acetone. After 7 days, a 10 μl portion of a solution of the test compound in acetone (acidified to pH 5 with citric acid*) or, for control purposes, just the acidified acetone vehicle, was applied to the right ears of the mice and immediately followed by an application of 10 μl of 0.5% w/v solution of oxazolone in acetone. After 24 hours the animals were killed, the ears removed and results calculated as for Test A above.
*Note: acidified acetone was used to eliminate any possible reaction between the basic test compound of formula I and the oxazolone.]

[4] = Average of experiments 1-3, 2% w/v in acetone pH 5
[5] = Experiment 1, 2% w/v in acetone pH 5, listed as (-)-optically active (S) form
[6] = Experiment 2, 2% w/v in acetone pH 5
[7] = Experiment 3, 2% w/v in acetone pH 5
[8] = cream formulation II, 0.25% w/w
[9] = 1% w/v in aqueous ethanol containing 40% w/v N-methylpyrrolidone

CC(C)C(=O)NCCNCC(O)COc1ccccc1 (racemic) [compound of formula I, N-(2-[2-hydroxy-3-phenoxypropyl]aminoethyl)isobutyramide] was tested, and the “adverse effects on the cardiovasculature” value (cardiovasculature) was “no adverse effects on the cardiovasculature” and the “overt toxic or adverse effects” value ([1]; during Test C) was “no overt toxic or adverse effects were observed”.
With CC(C)C(=O)NCCNCC(O)COc1ccccc1 (racemic) [racemate, N-(2-[2-hydroxy-3-phenoxypropyl]aminoethyl)isobutyramide] the “% Inhibition” value ([2]; 2.5 μg/ear) was 25.6%, the “% increase in ear weight ± SEM” value ([2]; 2.5 μg/ear) was 59.1 ± 5.92% and the “% Inhibition” value ([2]; 25 μg/ear) was 49.3%. The “% increase in ear weight ± SEM” value ([2]; 25 μg/ear) was 40.2 ± 4.88%, the “% Inhibition” value ([2]; 250 μg/ear) was 61.8% and the “% increase in ear weight ± SEM” value ([2]; 250 μg/ear) was 30.3 ± 4.0%. It also gave an ED50 application rate [2] of 44 micrograms/ear.
In the case of CC(C)C(=O)NCCNC[C@H](O)COc1ccccc1 [(-)-(S) form, (-)-N-(2-[2-hydroxy-3-phenoxypropyl]aminoethyl)isobutyramide], the “% Inhibition” value ([2]; 4.9 μg/ear) is reported as 23.8%, the “% increase in ear weight ± SEM” value ([2]; 4.9 μg/ear) is reported as 65.2 ± 3.17% and the “% Inhibition” value ([2]; 14.8 μg/ear) is reported as 46.5%. The “% increase in ear weight ± SEM” value ([2]; 14.8 μg/ear) was 45.8 ± 3.96%, the “% Inhibition” value ([2]; 44.4 μg/ear) was 52.2% and the “% increase in ear weight ± SEM” value ([2]; 44.4 μg/ear) was 40.9 ± 4.02%. The “% Inhibition” value ([2]; 133.3 μg/ear) was 66.5%, the “% increase in ear weight ± SEM” value ([2]; 133.3 μg/ear) was 28.6 ± 3.56% and the “% Inhibition” value ([2]; 400 μg/ear) was 91.8%. For the same compound, the “% increase in ear weight ± SEM” value ([2]; 400 μg/ear) was 7.0 ± 1.25%, the ED50 application rate [2] was 29 micrograms/ear and the Inhibition ([3]; 2.5 μg/ear) was 20 ± 8%. For the same compound, the Inhibition ([3]; 25 μg/ear) was 35 ± 9%, the Inhibition ([3]; 250 μg/ear) was 60 ± 7% and the ED50 ([3]; calculated from the dose-inhibition table) was 91 μg/ear. The “% of sites in which erythema is inhibited by 30%” value [1, 4] was 71%, the “% of sites in which erythema is inhibited by 50%” value [1, 4] was 53% and the “% of sites in which erythema is inhibited by 70%” value [1, 4] was 16%. The “% of sites in which erythema is inhibited by 30%” value [1, 5] was 80% and 73%, the “% of sites in which erythema is inhibited by 50%” value [1, 5] was 60% and 36% and the “% of sites in which erythema is inhibited by 30%” value [1, 6] was 50%. For the same compound, the “% of sites in which erythema is inhibited by 50%” value [1, 6] was 50%, the “% of sites in which erythema is inhibited by 70%” value [1, 6] was 17% and the “% of sites in which erythema is inhibited by 30%” value [1, 7] was 83%. The “% of sites in which erythema is inhibited by 50%” value [1, 7] was 67%, the “% of sites in which erythema is inhibited by 70%” value [1, 7] was 17% and the “% of sites in which erythema is inhibited by 30%” value [1, 8] was 86%. For the same compound, the “% of sites in which erythema is inhibited by 50%” value [1, 8] was 29%, the “% of sites in which erythema is inhibited by 70%” value [1, 8] was 14% and the “% of sites in which erythema is inhibited by 30%” value ([1]; cream formulation II, 0.5% w/w) was 86%. The “% of sites in which erythema is inhibited by 50%” value ([1]; cream formulation II, 0.5% w/w) was 29%, the “% of sites in which erythema is inhibited by 70%” value ([1]; cream formulation II, 0.5% w/w) was 29% and the “% of sites in which erythema is inhibited by 30%” value ([1]; cream formulation II, 1% w/w) was 88%. For the same compound, the “% of sites in which erythema is inhibited by 50%” value ([1]; cream formulation II, 1% w/w) was 75%, the “% of sites in which erythema is inhibited by 70%” value ([1]; cream formulation II, 1% w/w) was 50% and the “% of sites in which erythema is inhibited by 30%” value ([1]; cream formulation II, 2% w/w) was 100%. The “% of sites in which erythema is inhibited by 50%” value ([1]; cream formulation II, 2% w/w) was 80% and the “% of sites in which erythema is inhibited by 70%” value ([1]; cream formulation II, 2% w/w) was 80%.
For CCCCC(=O)O[C@]1(C(=O)CO)[C@@H](C)C[C@H]2[C@@H]3CCC4=CC(=O)C=C[C@]4(C)[C@@]3(F)[C@@H](O)C[C@@]21C [BV, betamethasone-17-valerate, reference compound], the “% of sites in which erythema is inhibited by 30%” value [1, 9] was 75%, the “% of sites in which erythema is inhibited by 50%” value [1, 9] was 38% and the “% of sites in which erythema is inhibited by 70%” value [1, 9] was 25%.
With C[C@]12CCC(=O)C=C1CC[C@@H]1[C@@H]2[C@@H](O)C[C@@]2(C)[C@H]1CC[C@]2(O)C(=O)CO [hydrocortisone, reference compound] the Inhibition ([2]; similar test conditions, 25 μg/ear) was “approximately 70%”, the “% of sites in which erythema is inhibited by 30%” value [1, 9] was 67% and the “% of sites in which erythema is inhibited by 50%” value [1, 9] was 28%. The “% of sites in which erythema is inhibited by 70%” value [1, 9] was 6%.
For CC(C)NCC(O)COc1cccc2ccccc12 (stereo not drawn) [propranolol, reference compound], the “activity as topical anti-inflammatory agent” value (“activity” below) [2] was “inactive”.
In the case of CC(C)C(=O)NCCNC[C@@H](O)COc1ccccc1 [reference compound], the “activity” value [2] is reported as “inactive”.
For O=C(NCCNCC(O)COc1ccc(O)cc1)N1CCOCC1 (stereo not drawn) [xamoterol, reference compound], the “activity” value [2] was “inactive”.
